{"source": "patent US10570179B2", "about": "“Substituted urea depsipeptide analogs as activators of the CLPP endopeptidase” (priority 2016, dated 2020)", "key": {"Sa-ClpP": {"biological_target": "T1, Sa-ClpP (Staphylococcus aureus, UniProt Q2G036)", "T1 construct": "made in house; host or cells: E. coli BL21 (DE3)", "T1 sequence (Q2G036 whole entry)": "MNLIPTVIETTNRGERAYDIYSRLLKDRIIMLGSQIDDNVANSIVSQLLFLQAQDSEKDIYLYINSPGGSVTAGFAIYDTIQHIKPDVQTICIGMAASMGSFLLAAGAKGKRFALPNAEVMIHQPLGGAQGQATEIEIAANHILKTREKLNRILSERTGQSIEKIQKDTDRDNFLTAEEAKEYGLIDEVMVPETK", "test": "ADEP displacement fluorescence polarization assay", "format": "binding, S. aureus", "settings": "displacement of FP probe ADEP 2591 from Sa-ClpP", "experimental": "A fluorescence polarization (FP) assay was used to determine the activity of the disclosed compounds in displacing an ADEP analogue from ClpP. Briefly, the assay was performed in black 384 well, flat bottom, low volume plates (Greiner Bio-One, Monroe, N.C., catalog #784076). 20 μL of a pre-equilibrated (1 hr, room temperature) master mix (15 μM Sa-ClpP, 2% DMSO (v/v) and 50 nM FP probe in TrisHCl, pH 8.0)) was pipetted into each well using a Well-Mate (Thermo Scientific, Waltham, Mass.). Sa-ClpP was prepared as described above for the ClpP activation assay. The FP probe was ADEP 2591 (structure shown above). The ADEP 2591 comprises a TAMRA fluorophore linked to a core based on modified ADEP 2378 via a short alkyl linker. Using pin transfer, approximately 0.4 μL (2% v/v DMSO) of each compound or control was added per well. After addition of compounds and controls, plates were allowed to incubate for an additional 120 minutes at room temperature. All assays were performed in triplicate. Polarization was monitored using an EnVision Multilabel reader (Perkin-Elmer, Waltham, Mass.) by exciting the FP probe at 530±25 nm, and monitoring fluorescence intensity of both parallel and perpendicular polarized light at 579±25 nm. Readout was in millipolarization units (mP).\nSignal gain and G factors were determined in wells containing 200 μM ADEP 2378, which had been previously verified (data not shown) as containing completely unbound ADEP 2591. Data collected was normalized to values obtained from positive (200 μM ADEP 2378) or negative (DMSO) controls. Curves were fit with non-linear regression using the equation “log [inhibitor] vs. Response-variable slope (four parameters)-symmetrical” in the program Prism 6 (GraphPad Software, La Jolla, Calif. USA, www.graphpad.com). The structures for ADEP 2378 and ADEP 2591 are shown above. ADEP 2378 is (E)-N—((S)-1-(((2R,6S,8aS,14aS,20S,23aS)-2,6-dimethyl-5,8,14,19,23-pentaoxooctadecahydro-1H,5H,14H,19H-pyrido[2,1-i]dipyrrolo[2,1-c:2′,1′-1][1]oxa[4,7,10,13]tetraazacyclohexadecin-20-yl)amino)-1-oxo-3-phenylpropan-2-yl)pent-2-enamide. ADEP 2591 is 5-(3-(3-((6S,9S,11aS,17S,20aS)-6,10-dimethyl-5,8,11,16,20-pentaoxo-17-((S)-2-((E)-pent-2-enamido)-3-phenylpropanamido)hexadecahydro-1H,5H,16H-dipyrrolo[2,1-c:2′,1′-1][1]oxa[4,7,10,13]tetraazacyclohexadecin-9-yl)propyl)thioureido)-2-(6-(dimethylamino)-3-(dimethyliminio)-3H-xanthen-9-yl)benzoate."}, "S. aureus ΔClpP": {"tested_on": "S. aureus ΔClpP", "test": "Minimal inhibitory concentration, microbroth dilution", "format": "cell-based, Staphylococcus aureus", "settings": "MIC; ClpP inactivated", "how_it_was_run": "(§1)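 Growth inhibition was scored visually after overnight aerobic culture at 37 °C in CLSI-style microdilution plates. Inocula contained about 10^5 cfu/mL, and compound concentrations descended in twofold steps from 200 μM.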"}, "E. faecails": {"tested_on": "E. faecails", "test": "Minimal inhibitory concentration, microbroth dilution", "format": "cell-based", "settings": "Enterococcus faecalis", "how_it_was_run": "as §1"}, "MRSA NRS70": {"tested_on": "MRSA NRS70", "test": "Minimal inhibitory concentration, microbroth dilution", "format": "cell-based", "settings": "Staphylococcus aureus", "how_it_was_run": "as §1"}, "S. aureus ATCC 29213": {"tested_on": "S. aureus ATCC 29213", "test": "Minimal inhibitory concentration, microbroth dilution", "format": "cell-based", "settings": "Staphylococcus aureus", "how_it_was_run": "as §1"}, "S. aureus USA 300": {"tested_on": "S. aureus USA 300", "test": "Minimal inhibitory concentration, microbroth dilution", "format": "cell-based", "settings": "Staphylococcus aureus", "how_it_was_run": "as §1"}, "Plasma stability assay [1]": {"test": "Plasma stability assay", "format": "in vitro ADME, human", "experimental": "(§2) The plasma stability property of early drug discovery compounds can influence the in vivo efficacy of the test compounds/drugs. Human and/or mouse plasma degradation is determined using multiple time points to monitor the rate of disappearance of the parent compound during incubation.\n(§3) Sample preparation for plasma stability was modified from Di et al. (2005) Int. J. Pharm. 297(1-2): 110-119. A set of incubation times of 0, 3, 24, and 48 hour were used. DMSO stock solutions of test compounds were prepared at 10 mM concentration. 1.8 μL of each test compound was each added directly to 1.8 mL of human/mouse plasma to get the final concentration of 10 μM. This compound/matrix was mixed and 70 μL was transferred to 8 time points plates (each in triplicate wells). For the Time 0 plate, 210 μL of cold acetonitrile with internal standard (4 μg/mL warfarin) was added to each well and no incubation needed. For other seven time points' plate, the plate was incubated at 37° C. for required time, followed by quenching of the reaction by adding 210 μL of cold acetonitrile with internal standard (4 μg/ml warfarin) to each well. All of the plates were sealed and mixed well at 600 rpm for 10 min and were centrifuged at 4000 rpm for 20 min. The supernatants (120 μL) were transferred to analytical plates for analysis by LCMS. Conditions for Waters ACQUITY-UPLC-MS-UV system was described separately. The plasma stability was evaluated via the half-life from least-squares fit of the multiple time points based on first-order kinetics."}, "Plasma stability assay [2]": {"test": "Plasma stability assay", "format": "in vitro ADME, mouse", "experimental": "as §2, §3"}, "[3]": {"settings": "read-out: Minimal Inhibitory Concentrations (μM) E. faecails, MIC"}, "[4]": {"settings": "read-out: Minimal Inhibitory Concentrations (μM) MRSA NRS70, MIC"}, "[5]": {"settings": "ATCC29213, read-out: Minimal Inhibitory Concentrations (μM) S. aureus ATCC 29213, MIC"}, "[6]": {"settings": "USA300, read-out: Minimal Inhibitory Concentrations (μM) S. aureus USA 300, MIC"}, "[7]": {"settings": "plasma stability half-life, human plasma, 37° C."}, "[8]": {"settings": "plasma stability half-life, mouse plasma, 37° C."}}, "note": "Like-named read-outs stand apart in the source and are kept apart here. Numbered stars: 1 amine (or outer) side, 2 acyl side, 3 side chain; on linkers, the order of the positions; unused ones are H or OH. Bridge positions count the residues as written; N and C are the ends. Square brackets hold non-standard residues; d marks the D form. Peptide text beside a SMILES is read from it. * marks the point of attachment. Phe(3,5-Me2) = Cc1cc(C)cc(C[C@H](N)C(=O)O)c1; Phe(3-Me) = Cc1cccc(C[C@H](N)C(=O)O)c1; NH(4-Cl-2-F-phenyl) = Fc1cc(Cl)ccc1N*; Pro(4R-Me) = C[C@H]1CN[C@H](C(=O)O)C1; NH(4-Me-phenyl) = Cc1ccc(N*)cc1; aThr = C[C@H](O)[C@H](N)C(=O)O; Pip = O=C(O)[C@@H]1CCCCN1; CO = O=C([*:1])[*:2]"}
{"smiles": "Cc1ccc(NC(=O)N[C@@H](Cc2cccc(C)c2)C(=O)N[C@@H]2C(=O)N3CCC[C@H]3C(=O)N3CCCC[C@H]3C(=O)N[C@@H](C)C(=O)N3C[C@H](C)C[C@H]3C(=O)O[C@H]2C)cc1", "note": "[Compound 1, (S)-3-(M-TOLYL)-2-(3-(P-TOLYL)UREIDO)-N-((2R,6S,8AS,14AS,20S,21S,23AS)-2,6,21-TRIMETHYL-5,8,14,19,23-PENTAOXOOCTADECAHYDRO-1H,5H,14H,19H-PYRIDO[2,1-I]DIPYRROLO[2,1-C:2′,1′-L][1]OXA[4,7,10,13]TETRAAZACYCLOHEXADECIN-20-YL)PROPANAMIDE] ({NH(4-Me-phenyl)-CO}-[Phe(3-Me)][aThr]P[Pip]A[Pro(4R-Me)]; ester 2-C)", "values": [{"measurement": "IC50", "setting": "Sa-ClpP", "value": "7.48 ± 0.5", "unit": "µM"}, {"measurement": "Minimal Inhibitory Concentrations (μM) S. aureus ΔClpP", "setting": "S. aureus ΔClpP", "value": 200, "unit": "µM"}, {"measurement": "MIC", "setting": "E. faecails; [3]", "value": 1.25, "unit": "µM"}, {"measurement": "MIC", "setting": "MRSA NRS70; [4]", "value": 0.156, "unit": "µM"}, {"measurement": "MIC", "setting": "S. aureus ATCC 29213; [5]", "value": 0.313, "unit": "µM"}, {"measurement": "MIC", "setting": "S. aureus USA 300; [6]", "value": "< 0.098", "unit": "µM"}, {"measurement": "Human (hr)", "setting": "Plasma stability assay [1]; [7]", "value": ">>48 hr"}, {"measurement": "Mouse (hr)", "setting": "Plasma stability assay [2]; [8]", "value": ">>48 hr"}]}
{"smiles": "Cc1ccc(NC(=O)N[C@@H](Cc2cc(C)cc(C)c2)C(=O)N[C@@H]2C(=O)N3CCC[C@H]3C(=O)N3CCCC[C@H]3C(=O)N[C@@H](C)C(=O)N3C[C@H](C)C[C@H]3C(=O)O[C@H]2C)cc1", "note": "[Compound 2, (S)-3-(3,5-DIMETHYLPHENYL)-2-(3-(P-TOLYL)UREIDO)-N-((2R,6S,8AS,14AS,20S,21S,23AS)-2,6,21-TRIMETHYL-5,8,14,19,23-PENTAOXOOCTADECAHYDRO-1H,5H,14H,19H-PYRIDO[2,1-I]DIPYRROLO[2,1-C:2′,1′-L][1]OXA[4,7,10,13]TETRAAZACYCLOHEXADECIN-20-YL)PROPANAMIDE] ({NH(4-Me-phenyl)-CO}-[Phe(3,5-Me2)][aThr]P[Pip]A[Pro(4R-Me)]; ester 2-C)", "values": [{"measurement": "IC50", "setting": "Sa-ClpP", "value": "8.82 ± 0.4", "unit": "µM"}, {"measurement": "Minimal Inhibitory Concentrations (μM) S. aureus ΔClpP", "setting": "S. aureus ΔClpP", "value": 200, "unit": "µM"}, {"measurement": "MIC", "setting": "E. faecails; [3]", "value": 2.5, "unit": "µM"}, {"measurement": "MIC", "setting": "MRSA NRS70; [4]", "value": 0.313, "unit": "µM"}, {"measurement": "MIC", "setting": "S. aureus ATCC 29213; [5]", "value": 1.25, "unit": "µM"}, {"measurement": "MIC", "setting": "S. aureus USA 300; [6]", "value": 0.781, "unit": "µM"}, {"measurement": "Human (hr)", "setting": "Plasma stability assay [1]; [7]", "value": ">>48 hr"}, {"measurement": "Mouse (hr)", "setting": "Plasma stability assay [2]; [8]", "value": ">>48 hr"}]}
{"smiles": "Cc1cccc(C[C@H](NC(=O)Nc2ccc(Cl)cc2F)C(=O)N[C@@H]2C(=O)N3CCC[C@H]3C(=O)N3CCCC[C@H]3C(=O)N[C@@H](C)C(=O)N3C[C@H](C)C[C@H]3C(=O)O[C@H]2C)c1", "note": "[Compound 3, (S)-2-(3-(4-CHLORO-2-FLUOROPHENYL)UREIDO)-3-(M-TOLYL)-N-((2R,6S,8AS,14AS,20S,21S,23AS)-2,6,21-TRIMETHYL-5,8,14,19,23-PENTAOXOOCTADECAHYDRO-1H,5H,14H,19H-PYRIDO[2,1-I]DIPYRROLO[2,1-C:2′,1′-L][1]OXA[4,7,10,13]TETRAAZACYCLOHEXADECIN-20-YL)PROPANAMIDE] ({NH(4-Cl-2-F-phenyl)-CO}-[Phe(3-Me)][aThr]P[Pip]A[Pro(4R-Me)]; ester 2-C)", "values": [{"measurement": "IC50", "setting": "Sa-ClpP", "value": "6.61 ± 0.28", "unit": "µM"}, {"measurement": "Minimal Inhibitory Concentrations (μM) S. aureus ΔClpP", "setting": "S. aureus ΔClpP", "value": 50, "unit": "µM"}, {"measurement": "MIC", "setting": "E. faecails; MIC, read-out: Minimal Inhibitory Concentrations (μM) E. faecails", "value": 0.078, "unit": "µM"}, {"measurement": "MIC", "setting": "MRSA NRS70; MIC, read-out: Minimal Inhibitory Concentrations (μM) MRSA NRS70", "value": 0.078, "unit": "µM"}, {"measurement": "MIC", "setting": "S. aureus ATCC 29213; ATCC29213, MIC, read-out: Minimal Inhibitory Concentrations (μM) S. aureus ATCC 29213", "value": 0.156, "unit": "µM"}, {"measurement": "MIC", "setting": "S. aureus USA 300; USA300, MIC, read-out: Minimal Inhibitory Concentrations (μM) S. aureus USA 300", "value": 0.156, "unit": "µM"}, {"measurement": "Human (hr)", "setting": "Plasma stability assay [1]; human, 10 μM", "value": ">>48 hr"}, {"measurement": "Mouse (hr)", "setting": "Plasma stability assay [2]; mouse, 10 μM", "value": ">>48 hr"}]}
